Assay results reported in patent US20240409662A1, “ANTIBODY MASKS AND USES THEREOF” (Vibrant Pharma Limited, priority 2021, published 2024).
Residue numbers refer to the chain shown, from its start. Names and notes keep the numbering of the source. Read-outs that look alike come from different tables or passages of the source. No end group written: not given here.

Key:
SP34 = test: Masking capability of potential masks of SP34 (ELISA, BLI); assay type: binding; settings: mask and linker fused to SP34 VH and/or VL
Procedure: Binding of the 19 M-TCEs to both their antigens CEACAM5 and CD3δε was assessed with BLI using ForteBio Red96 as described above.

HT29 cells = test: PBMC co-cultivation assay, M-TCE-induced killing of HT29 cells; assay type: cell-based, human; settings: for EC50: HT29 + human PBMC, 72 hours, read-out: Efficacy (EC50); for tumor cell killing efficacy: digested vs undigested, in words; for Digested vs. masked: ratio of EC50 non-digested to MMP9-digested
Procedure: Five digested and undigested M-TCEs were tested for their tumor cell killing capability in the presence of human PBMC.
A total of 5×10^3 cells in RPMI1640 medium (supplemented with 10% FBS and 2 mM glutamine) of the target cell line (HT29) were seeded in 96-well plates (Day 0). A dilution series of respective antibodies was performed in assay media and added to target cells. On Day 0, a total of 5×10^4 PBMCs were added to each well, and the final reaction volume was adjusted to 200 μl. Percentage viability of target cell was measured by […]. LDH was measured after 72 hours using the Cell Counting Kit-8 (CK04, Dojindo, Japan) according to the manufacturer's recommendations. The results were analyzed as mean and standard deviation (SD) from triplicate wells and plotted as 4-parameter non-linear regression fittings using GraphPad Prism 9 software (GraphPad Software, San Diego, CA, USA).

CD3 on human PBMC = CD3 on human PBMC (human, UniProt P07766 23-207); test: cell-based or functional assay
Sequence of CD3 on human PBMC (P07766 23-207): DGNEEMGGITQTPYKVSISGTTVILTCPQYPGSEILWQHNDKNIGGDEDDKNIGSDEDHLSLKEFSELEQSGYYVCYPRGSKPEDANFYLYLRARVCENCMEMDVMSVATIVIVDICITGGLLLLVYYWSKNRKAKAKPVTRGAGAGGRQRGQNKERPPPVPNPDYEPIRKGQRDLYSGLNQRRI

L2-Q1H: M-TCE; HDGNEEGSPLGLGS-SP34VH, SEQ ID NO 22
Masking Capability (SP34): No

L5-D2G: M-TCE; QGGNEESSGGSPLGLSSGGS-SP34VH, SEQ ID NO 34
Masking Capability (SP34): Yes

L2-Q1Y: M-TCE; YDGNEEGSPLGLGS-SP34VH, SEQ ID NO 21
Masking Capability (SP34): No

L2-G3I: M-TCE; QDINEEGSPLGLGS-SP34VH, SEQ ID NO 37
Masking Capability (SP34): No

L6-D2E: M-TCE; QEGNEESSGGGSPLGLSSGGGS-SP34VH, SEQ ID NO 29
Masking Capability (SP34): Yes | EC50 (HT29 cells; MMP9-digested): 10 pM | EC50 (HT29 cells; Non-digested): 317 pM | tumor cell killing efficacy (HT29 cells): higher efficacy in inducing tumor cell killing than their undigested counterparts | Digested vs. masked (HT29 cells): 32×

L6-G3R: M-TCE; QDRNEESSGGGSPLGLSSGGGS-SP34VH, SEQ ID NO 45
Masking Capability (SP34): Yes

L6-D2G: M-TCE; QGGNEESSGGGSPLGLSSGGGS-SP34VH, SEQ ID NO 35
Masking Capability (SP34): Yes

L6-WT: M-TCE; QDGNEESSGGGSPLGLSSGGGS-SP34VH, SEQ ID NO 17
Masking Capability (SP34): Yes

L7-D2E: M-TCE; QEGNEESSGGSGSPLGLSSGGSGS-SP34VH, SEQ ID NO 30
Masking Capability (SP34): Yes

L7-D2G: M-TCE; QGGNEESSGGSGSPLGLSSGGSGS-SP34VH, SEQ ID NO 36
Masking Capability (SP34): Yes | EC50 (HT29 cells; MMP9-digested): 11 pM | EC50 (HT29 cells; Non-digested): 96 pM | tumor cell killing efficacy (HT29 cells): higher efficacy in inducing tumor cell killing than their undigested counterparts | Digested vs. masked (HT29 cells): 9×

L3-WT: M-TCE; QDGNEESGSPLGLSGG-SP34VH, SEQ ID NO 14
Masking Capability (SP34): Yes

L2-Q1E: M-TCE; EDGNEEGSPLGLGS-SP34VH, SEQ ID NO 19
Masking Capability (SP34): No

L4-G3R: M-TCE; QDRNEEGSGSPLGLGSGS-SP34VH, SEQ ID NO 44
Masking Capability (SP34): Yes

L2-G3A: M-TCE; QDANEEGSPLGLGS-SP34VH, SEQ ID NO 38
Masking Capability (SP34): Yes

L2-D2I: M-TCE; QIGNEEGSPLGLGS-SP34VH, SEQ ID NO 31
Masking Capability (SP34): No

L4-D2G: M-TCE; QGGNEEGSGSPLGLGSGS-SP34VH, SEQ ID NO 33
Masking Capability (SP34): Yes

L2-D2E: M-TCE; QEGNEEGSPLGLGS-SP34VH, SEQ ID NO 26
Masking Capability (SP34): Yes

L2-Q1S: M-TCE; SDGNEEGSPLGLGS-SP34VH, SEQ ID NO 20
Masking Capability (SP34): No

L2-WT: M-TCE; QDGNEEGSPLGLGS-SP34VH, SEQ ID NO 13
Masking Capability (SP34): Yes

L5-WT: M-TCE; QDGNEESSGGSPLGLSSGGS-SP34VH, SEQ ID NO 16
Masking Capability (SP34): Yes

L7-WT: M-TCE; QDGNEESSGGSGSPLGLSSGGSGS-SP34VH, SEQ ID NO 18
Masking Capability (SP34): Yes

L0-WT: M-TCE; QDGNEEPLGL-SP34VH, SEQ ID NO 12
Masking Capability (SP34): Yes

L6-G3A: M-TCE; QDANEESSGGGSPLGLSSGGGS-SP34VH, SEQ ID NO 41
Masking Capability (SP34): Yes

L7-G3A: M-TCE; QDANEESSGGSGSPLGLSSGGSGS-SP34VH, SEQ ID NO 42
Masking Capability (SP34): Yes

L2-Q1V: M-TCE; VDGNEEGSPLGLGS-SP34VH, SEQ ID NO 23
Masking Capability (SP34): No

L5-G3A: M-TCE; QDANEESSGGSPLGLSSGGS-SP34VH, SEQ ID NO 40
Masking Capability (SP34): Yes

LC-L4-G2E: M-TCE, mask on VL; QEGNEEGSGSPLGLGSGS-SP34VL, SEQ ID NO 27
Masking Capability (SP34): Yes

L5-D2E: M-TCE; QEGNEESSGGSPLGLSSGGS-SP34VH, SEQ ID NO 28
Masking Capability (SP34): Yes | EC50 (HT29 cells; MMP9-digested): 13 pM | EC50 (HT29 cells; Non-digested): 418 pM | tumor cell killing efficacy (HT29 cells): higher efficacy in inducing tumor cell killing than their undigested counterparts | Digested vs. masked (HT29 cells): 32×

L4-WT: M-TCE; QDGNEEGSGSPLGLGSGS-SP34VH, SEQ ID NO 15
Masking Capability (SP34): Yes

L2-D2R: M-TCE; QRGNEEGSPLGLGS-SP34VH, SEQ ID NO 25
Masking Capability (SP34): No

L2-D2G: M-TCE; QGGNEEGSPLGLGS-SP34VH, SEQ ID NO 32
Masking Capability (SP34): Yes

B1: SP34-CEA (bispecific antibody)
heavy: EVKLLESGGGLVQPKGSLKLSCAASGFTFNTYAMNWVRQAPGKGLEWVARIRSKYNNYATYYADSVKDRFTISRDDSQSILYLQMNNLKTEDTAMYYCVRHGNFGNSYVSWFAYWGQGTLVTVSS
light: QAVVTQESALTTSPGETVTLTCRSSTGAVTTSNYANWVQEKPDHLFTGLIGGTNKRAPGVPARFSGSLIGDKAALTITGAQTEDEAIYFCALWYSNLWVFGGGTKVEIK
chain: EVQLVESGGGFVQAGESLTLSCTSSTLTFTPYRMAWYRQAPGKQRDLVADISSGDGRTTNYADFAKGRFTISRDNIKNTVFLRMTNLKPEDTAVYYCNTFVSFVGIARSWGQGTQVTVSSESKYGPPCPPCPAPEAAGGPSVFLFPPKPKDTLMISRTPEVTCVVVDVSQEDPEVQFNWYVDGVEVHNAKTKPREEQFNSTYRVVSVLTVLHQDWLNGKEYKCKVSNKGLPSSIEKTISKAKGQPREPQVCTLPPSQEEMTKNQVSLSCAVKGFYPSDIAVEWESNGQPENNYKTTPPVLDSDGSFFLVSRLTVDKSRWQEGNVFSCSVMHEALHNRFTQKSLSLSL
EC50 of M-TCE-induced killing of HT29 cells in the presence of human PBMC (CD3 on human PBMC): 1 pM

B2: MMP9-digested L6-D2E (bispecific antibody, not shown: small tags and cut ends)
heavy: B1 heavy
light: B1 light
chain: B1 chain
EC50 of M-TCE-induced killing of HT29 cells in the presence of human PBMC (CD3 on human PBMC): 10 pM

B3: MMP9-digested L7-D2G (bispecific antibody, not shown: small tags and cut ends)
heavy: B1 heavy
light: B1 light
chain: B1 chain
EC50 of M-TCE-induced killing of HT29 cells in the presence of human PBMC (CD3 on human PBMC): 11 pM

B4: L4-D2E (bispecific antibody)
heavy: QEGNEEGSGSPLGLGSGSEVKLLESGGGLVQPKGSLKLSCAASGFTFNTYAMNWVRQAPGKGLEWVARIRSKYNNYATYYADSVKDRFTISRDDSQSILYLQMNNLKTEDTAMYYCVRHGNFGNSYVSWFAYWGQGTLVTVSS
light: B1 light
chain: B1 chain
Digested vs. masked (ratio of killing EC50) (CD3 on human PBMC): 59 fold | EC50 of M-TCE-induced killing of HT29 cells in the presence of human PBMC (CD3 on human PBMC): 650 pM

B5: L4-G3A (bispecific antibody)
heavy: B4 heavy with E2D, G3A
light: B1 light
chain: B1 chain
Digested vs. masked (ratio of killing EC50) (CD3 on human PBMC): 144 fold | EC50 of M-TCE-induced killing of HT29 cells in the presence of human PBMC (CD3 on human PBMC): 1720 pM

B6: L5-D2E (bispecific antibody)
heavy: QEGNEESSGGSPLGLSSGGSEVKLLESGGGLVQPKGSLKLSCAASGFTFNTYAMNWVRQAPGKGLEWVARIRSKYNNYATYYADSVKDRFTISRDDSQSILYLQMNNLKTEDTAMYYCVRHGNFGNSYVSWFAYWGQGTLVTVSS
light: B1 light
chain: B1 chain
Digested vs. masked (ratio of killing EC50) (CD3 on human PBMC): 32 fold | EC50 of M-TCE-induced killing of HT29 cells in the presence of human PBMC (CD3 on human PBMC): 418 pM
